Converted amounts (≈) assume the structure as drawn. Read-outs that look alike come from different tables or passages of the source.
Columns and labels:
L1210 = L1210 leukemia model in vivo (% ILS, survival time); design: species or system mouse; settings: for ILS at 46.4 mg/kg: read-out: % ILS L1210
Description: In the hollow fiber assay, both compounds were almost equally strongly active, while on L 1210 D-24851 was markedly more strongly active after oral and intraperitoneal administration than D-24241.

[1] = for Tox. p.o.: p.o. (Table 5)
KB cell line = experiment: XTT proliferation test/cytotoxicity test, KB cell line; type: cell-based; settings: for EC50: Homo sapiens, KB, read-out: XTT EC50 KB
Description: (§1) In this test system, the effect of substances on the proliferation behavior of tumor cell lines is investigated. In the course of this, the cytotoxic potential of these substances is determined. The test method is described in Scudiero et al. 1988, Cancer Res. 48, 4827.
(§2) The following tumor cell lines were employed in the investigations:
(§3) The KB cell line an epidermal carcinoma of the oral cavity,
(§4) the L1210 cell line a lymphatic leukemia of the mouse, the LNCAP cell line a prostate carcinoma and the SK-OV-3 cell line an ovarian carcinoma.

SK-OV-3 cell line = experiment: XTT proliferation test/cytotoxicity test, SK-OV-3 cell line; type: cell-based; settings: for EC50: Homo sapiens; for XTT EC50 SK-OV-3: SK-OV-3 tumor cells
Description: as §1, §2, §3, §4

L1210 cell line = experiment: XTT proliferation test/cytotoxicity test, L1210 cell line; type: cell-based, mouse; settings: for EC50: Mus musculus; for XTT EC50 L1210: L1210 tumor cells
Description: as §1, §2, §3, §4

LNCAP cell line = experiment: XTT proliferation test/cytotoxicity test, LNCAP cell line; type: cell-based; settings: for EC50: Homo sapiens, read-out: XTT EC50 LNCaP
Description: as §1, §2, §3, §4

[2] = SK-OV-3, SK-OV-3 tumor cells, read-out: XTT EC50 SK-OV-3
[3] = L1210, L1210 tumor cells, read-out: XTT EC50 L1210
[4] = L1210, read-out: XTT EC50 L1210
[5] = SK-OV-3, read-out: XTT EC50 SK-OV-3

C[C@@H]1[O][Pt]2([NH]CC3CCC3C[NH]2)[O]C1=O (stereo partly drawn) [Lobaplatin, reference compound]
% ILS L1210 (L1210; 1 × 14.7 mg/kg ip): 55.0% ILS | Tox. i.p. ([1]; in vivo, ip): ≈34.0 i.p. mg/kg

COc1cc([C@@H]2c3cc4c(cc3[C@@H](O[C@@H]3O[C@@H]5CO[C@@H](C)O[C@H]5[C@H](O)[C@H]3O)[C@H]3COC(=O)[C@H]23)OCO4)cc(OC)c1O [Etoposide]
ILS at 46.4 mg/kg (L1210; Mus musculus, L1210, ip, 1 × 46.4 mg/kg i.p.): 56% | Tox. i.p. ([1]; in vivo, ip): ≈158.0 i.p. mg/kg | Tox. i.v. ([1]; in vivo, iv): >68.1 i.v. mg/kg

CN(Cc1cnc2nc(N)nc(N)c2n1)c1ccc(C(=O)N[C@@H](CCC(=O)O)C(=O)O)cc1 [Methotrexate, reference compound]
EC50 (KB cell line; KB tumor cells): ~0.007 µg/mL (≈ 0.0154 µM) | EC50 (SK-OV-3 cell line; [2]): > 31.6 µg/mL | ILS at 53.7 mg/kg (L1210; Mus musculus, L1210, ip, 1 × 53.7 mg/kg i.p.): 39%

O=C(Nc1ccc(F)cc1)C(=O)c1cn(Cc2ccc(F)cc2)c2ccccc12 [Example 6, N-(4-Fluorophenyl)-[1-(4-fluorobenzyl)indol-3-yl]glyoxylamide]
EC50 (KB cell line; KB tumor cells): 3.1 µg/mL (≈ 7.94 µM) | EC50 (L1210 cell line; [3]): 1.75 µg/mL (≈ 4.48 µM) | EC50 (LNCAP cell line; LNCaP tumor cells): > 31.6 µg/mL | EC50 (SK-OV-3 cell line; [2]): 17.5 µg/mL (≈ 44.8 µM)

O=C(Nc1cccnc1)C(=O)c1cn(Cc2ccc(F)cc2)c2ccccc12 [Example 3, N-(Pyridin-3-yl)-[1-(4-fluorobenzyl)indol-3-yl]glyoxylamide]
EC50 (KB cell line; KB tumor cells): 1.75 µg/mL (≈ 4.69 µM) | EC50 (L1210 cell line; [3]): 1.75 µg/mL (≈ 4.69 µM) | EC50 (LNCAP cell line; LNCaP tumor cells): 9.25 µg/mL (≈ 24.8 µM) | EC50 (SK-OV-3 cell line; [2]): 1.75 µg/mL (≈ 4.69 µM)

C/C(=C\c1csc(C)n1)[C@@H]1C[C@@H]2O[C@]2(C)CCC[C@H](C)[C@H](O)[C@@H](C)C(=O)C(C)(C)[C@@H](O)CC(=O)O1 [Epothilone B, reference compound]
XTT EC50 KB (KB cell line; KB tumor cells): KB ~ 0.0002 μg/ml | XTT EC50 L1210 (L1210 cell line): L1210 ~ 0.0017 μg/ml | XTT EC50 LNCaP (LNCAP cell line; LNCaP tumor cells): LNCAR ~ 0.014 μg/ml | XTT EC50 SK-OV-3 (SK-OV-3 cell line): SKOV3 ~ 0.0031 μg/ml | % ILS L1210 (L1210; 1 × 10 mg/kg i.p.): 44% ILS | Tox. i.p. ([1]; i.p. (Table 5)): ≈100.0 i.p. mg/kg

O=C(Nc1ccccn1)C(=O)c1cn(Cc2ccc(F)cc2)c2ccccc12 [Example 15, N-(Pyridin-2-yl)-[1-(4-fluorobenzyl)indol-3-yl]glyoxylamide]
EC50 (KB cell line): > 31.6 µg/mL | EC50 (L1210 cell line; [4]): 3.1 µg/mL (≈ 8.3 µM) | EC50 (LNCAP cell line; LNCaP): > 31.6 µg/mL | EC50 (SK-OV-3 cell line; [5]): > 31.6 µg/mL

O=C(Nc1ccc(F)cc1)C(=O)c1cn(Cc2cccnc2)c2ccccc12 [Example 12, N-(4-Fluorophenyl)-[1(3-pyridylmethyl)indol-3-yl]glyoxylamide]
EC50 (KB cell line; KB tumor cells): > 31.6 µg/mL | EC50 (L1210 cell line; [3]): 0.017 µg/mL (≈ 0.0455 µM) | EC50 (LNCAP cell line; LNCaP tumor cells): > 31.6 µg/mL | EC50 (SK-OV-3 cell line; [2]): > 31.6 µg/mL

O=C(Nc1ccc(F)cc1)C(=O)c1cn(Cc2ccccn2)c2ccccc12 [Example 11, N-(4-Fluorophenyl)-[1-(2-pyridylmethyl)indol-3-yl]glyoxylamide]
EC50 (KB cell line; KB tumor cells): 4.59 µg/mL (≈ 12.3 µM) | EC50 (L1210 cell line; [3]): 1.75 µg/mL (≈ 4.69 µM) | EC50 (LNCAP cell line; LNCaP tumor cells): 17.5 µg/mL (≈ 46.9 µM) | EC50 (SK-OV-3 cell line; [2]): 4.25 µg/mL (≈ 11.4 µM)

O=C(Nc1cccnc1)C(=O)c1cn(Cc2ccccc2)c2ccccc12 [Example 4, N-(Pyridin-3-yl)-(1-benzylindol-3-yl)glyoxylamide]
EC50 (KB cell line): 17.5 µg/mL (≈ 49.2 µM) | EC50 (L1210 cell line; [4]): 1.75 µg/mL (≈ 4.92 µM) | EC50 (LNCAP cell line; LNCaP): > 31.6 µg/mL | EC50 (SK-OV-3 cell line; [5]): 9.2 µg/mL (≈ 25.9 µM)

CCCCCCCCCCCCCCCCOP(=O)([O-])OCC[N+](C)(C)C [Miltefosine]
L1210 antitumor action (Table 5) (L1210; no dose given): no action | Tox. i.p. ([1]; i.p. (Table 5)): ≈46.4 i.p. mg/kg | Tox. p.o. [1]: ≈464-1000 mg/kg

O=P1(N(CCCl)CCCl)NCCCO1 (stereo not drawn) [Cyclophosphamide, reference compound]
ILS at 46.4 mg/kg (L1210; Mus musculus, L1210, iv): 40% | Tox. i.v. ([1]; i.v. (Table 5)): ≈340.7 i.v. mg/kg

O=C(Nc1ccncc1)C(=O)c1cn(Cc2cccnc2)c2ccccc12 [Example 10, N-(Pyridin-4-yl)-[1-(3-pyridylmethyl)indol-3-yl]glyoxylamide]
EC50 (KB cell line; KB tumor cells): 4.06 µg/mL (≈ 11.4 µM) | EC50 (L1210 cell line; [3]): 1.75 µg/mL (≈ 4.91 µM) | EC50 (LNCAP cell line; LNCaP tumor cells): > 31.6 µg/mL | EC50 (SK-OV-3 cell line; [2]): 7.22 µg/mL (≈ 20.3 µM)

O=C1c2c(O)ccc(O)c2C(=O)c2c(NCCNCCO)ccc(NCCNCCO)c21 [Mitoxantrone, reference compound]
EC50 (KB cell line; KB tumor cells): ~0.174 µg/mL (≈ 0.391 µM) | EC50 (L1210 cell line; [3]): < 0.0003 µg/mL | EC50 (LNCAP cell line; LNCaP tumor cells): ~0.017 µg/mL (≈ 0.0382 µM) | EC50 (SK-OV-3 cell line; [2]): ~0.174 µg/mL (≈ 0.391 µM) | ILS at 4.64 mg/kg (L1210; Mus musculus, L1210, iv, 1 × 4.64 mg/kg i.v.): 144% | Tox. i.v. ([1]; i.v. (Table 5)): 16 i.v. mg/kg

N.N.[Cl][Pt][Cl] [Cisplatin, reference compound]
XTT EC50 L1210 (L1210 cell line): L1210 0.30 μg/ml | % ILS L1210 (L1210; 1 × 3.16 mg/kg i.p.): 38.9% ILS

CC[C@]1(O)C[C@H]2CN(CCc3c([nH]c4ccccc34)[C@@](C(=O)OC)(c3cc4c(cc3OC)N(C=O)[C@H]3[C@@](O)(C(=O)OC)[C@H](OC(C)=O)[C@]5(CC)C=CCN6CC[C@]43[C@@H]65)C2)C1 [Vincristine, reference compound]
EC50 (KB cell line; KB tumor cells): < 0.001 µg/mL | EC50 (L1210 cell line; [3]): 0.004 µg/mL (≈ 0.00485 µM) | EC50 (LNCAP cell line; LNCaP, LNCaP tumor cells): 0.004 µg/mL (≈ 0.00485 µM) | EC50 (SK-OV-3 cell line; [2]): 0.003 µg/mL (≈ 0.00364 µM) | ILS at 1 mg/kg (L1210; Mus musculus, L1210, ip, 1 × 1.0 mg/kg i.p.): 29% | Tox. i.v. ([1]; i.v. (Table 5)): ≈3.0 i.v. mg/kg

N.N.O=C([O-])C1(C(=O)[O-])CCC1.[Pt+2] [Carboplatin]
% ILS L1210 (L1210; 1 × 100 mg/kg i.p.): 41% ILS | Tox. i.p. ([1]; i.p. (Table 5)): ≈158.0 mg/kg | Tox. p.o. [1]: ≈841.0 p.o mg/kg

C/C=C/[C@@H]1O[C@H]([C@H](O)/C=C/C=C(\C)C[C@@H](C)/C=C(C)\C=C\[C@H]2CC=CC(=O)O2)C[C@@H](O)[C@@H]1C [Ratjadone, reference compound]
XTT EC50 KB (KB cell line; KB tumor cells): KB < 0.003 μg/ml | XTT EC50 L1210 (L1210 cell line): L1210 < 0.003 μg/ml | XTT EC50 LNCaP (LNCAP cell line; LNCaP tumor cells): LNCAP < 0.003 μg/ml | XTT EC50 SK-OV-3 (SK-OV-3 cell line): SKOV3 < 0.003 μg/ml | % ILS L1210 (L1210; 1 × 1.47 mg/kg i.p.): 22% ILS | Tox. i.p. ([1]; i.p. (Table 5)): ~16.0 mg/kg | Tox. i.v. ([1]; i.v. (Table 5)): ~30.0 i.v. mg/kg

O=C(Nc1ccncc1)C(=O)c1cn(Cc2ccccc2)c2ccccc12 [Example 9, N-(Pyridin-4-yl)-(1-benzylindol-3-yl)glyoxylamide]
EC50 (KB cell line): 0.05 µg/mL (≈ 0.141 µM) | EC50 (L1210 cell line; [4]): 0.09 µg/mL (≈ 0.253 µM) | EC50 (LNCAP cell line; LNCaP): 3.24 µg/mL (≈ 9.12 µM) | EC50 (SK-OV-3 cell line; [5]): 1.75 µg/mL (≈ 4.92 µM)

O=P1(NCCCl)OCCCN1CCCl (stereo not drawn) [Ifosfamide, reference compound]
ILS at 316 mg/kg (L1210; Mus musculus, L1210, ip, 1 × x 316 mg/kg i.p.): 89% | Tox. i.p. ([1]; i.p. (Table 5)): ≈732 i.p. mg/kg

COc1cccc2c1C(=O)c1c(O)c3c(c(O)c1C2=O)C[C@@](O)(C(=O)CO)C[C@@H]3O[C@H]1C[C@H](N)[C@H](O)[C@H](C)O1 [Adriamycin, reference compound]
EC50 (KB cell line; KB tumor cells): 0.15 µg/mL (≈ 0.276 µM) | EC50 (L1210 cell line; [3]): 0.174 µg/mL (≈ 0.32 µM) | EC50 (LNCAP cell line; LNCaP tumor cells): 0.17 µg/mL (≈ 0.313 µM) | EC50 (SK-OV-3 cell line; [2]): 0.089 µg/mL (≈ 0.164 µM) | ILS at 14.7 mg/kg (L1210; Mus musculus, L1210, iv, 1 × 14.7 mg/kg i.v.): 111% | Tox. i.v. ([1]; i.v. (Table 5)): ≈27.0 i.v. mg/kg

O=C(Nc1ccncc1)C(=O)c1cn(Cc2ccccn2)c2ccccc12 [Example 16, N-(Pyridin-4-yl)-[1-(2-pyridylmethyl)indol-3-yl]glyoxylamide]
EC50 (KB cell line; KB tumor cells): 4.59 µg/mL (≈ 12.9 µM) | EC50 (L1210 cell line; [3]): 1.75 µg/mL (≈ 4.91 µM) | EC50 (LNCAP cell line; LNCaP tumor cells): 17.5 µg/mL (≈ 49.1 µM) | EC50 (SK-OV-3 cell line; [2]): 4.25 µg/mL (≈ 11.9 µM)

O=c1[nH]cc(F)c(=O)[nH]1 [5-Fluorouracil, reference compound]
ILS at 147 mg/kg (L1210; Mus musculus, L1210, ip, 1 × 147 mg/kg i.p.): 72% | ILS at 68.1 mg/kg (L1210; Mus musculus, L1210, ip, 4 × 68.1 mg/kg i.p.): 83%

O=C(Nc1ccncc1)C(=O)c1cn(Cc2ccccc2Cl)c2ccccc12 [Example 14, N-(Pyridin-4-yl)-[1-(2-chlorobenzyl)indol-3-yl]glyoxylamide]
EC50 (KB cell line; KB tumor cells): 1.75 µg/mL (≈ 4.49 µM) | EC50 (L1210 cell line; [3]): 1.75 µg/mL (≈ 4.49 µM) | EC50 (LNCAP cell line; LNCaP tumor cells): 17.5 µg/mL (≈ 44.9 µM) | EC50 (SK-OV-3 cell line; [2]): 2.58 µg/mL (≈ 6.62 µM)
